Test results published in patent US8309546B2, “Morpholinopurine derivatives” (Daiichi Sankyo Company, Limited, priority 2008, dated 2012).

Key:
[1] = biological target: T1, human mTOR (His-tagged mTOR (1362C)) (Homo sapiens, UniProt P42345); experiment: mTOR kinase activity inhibition assay; type: biochemical; settings: HTRF, read-out: IC50 against mTOR
T1 construct: the 1362 to 2549 amino acid portion on the C terminus side of human mTOR; His tag (N); made in house
Outline: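 Crude His-tagged mTOR (aa 1362–2549) from stable HEK293 cells, with 8 μg/ml biotinylated peptide in 50 mM HEPES pH 7.5, 20 mM MnCl2; compound diluted in 20 μM ATP solution, reaction 3 h at room temperature. Phospho-peptide detected by HTRF (anti-phospho-S6K Thr389 cryptate/streptavidin-XL665, overnight at 4°C), 665/620 nm ratio. IC50 derived from curve fit of % inhibition.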

[2] = tested on: S6 (serine 235 and 236) phosphorylation in AN3CA tumor; experiment: S6 phosphorylation inhibition assay in xenograft; type: in vivo, female nude mouse; settings: Mus musculus, AN3-CA, oral, 6 hr after dosing
Outline: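 AN3CA human endometrial cancer cells grown as subcutaneous xenografts in female nude mice; compound dosed orally at a set concentration, tumors excised after a set time. Tumor lysates at equal protein were western blotted for p-Akt(T308) and p-S6(S235/236). Inhibition (%) = 100−100×(treated/untreated phospho signal).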

T1 sequence (P42345 1362-2549): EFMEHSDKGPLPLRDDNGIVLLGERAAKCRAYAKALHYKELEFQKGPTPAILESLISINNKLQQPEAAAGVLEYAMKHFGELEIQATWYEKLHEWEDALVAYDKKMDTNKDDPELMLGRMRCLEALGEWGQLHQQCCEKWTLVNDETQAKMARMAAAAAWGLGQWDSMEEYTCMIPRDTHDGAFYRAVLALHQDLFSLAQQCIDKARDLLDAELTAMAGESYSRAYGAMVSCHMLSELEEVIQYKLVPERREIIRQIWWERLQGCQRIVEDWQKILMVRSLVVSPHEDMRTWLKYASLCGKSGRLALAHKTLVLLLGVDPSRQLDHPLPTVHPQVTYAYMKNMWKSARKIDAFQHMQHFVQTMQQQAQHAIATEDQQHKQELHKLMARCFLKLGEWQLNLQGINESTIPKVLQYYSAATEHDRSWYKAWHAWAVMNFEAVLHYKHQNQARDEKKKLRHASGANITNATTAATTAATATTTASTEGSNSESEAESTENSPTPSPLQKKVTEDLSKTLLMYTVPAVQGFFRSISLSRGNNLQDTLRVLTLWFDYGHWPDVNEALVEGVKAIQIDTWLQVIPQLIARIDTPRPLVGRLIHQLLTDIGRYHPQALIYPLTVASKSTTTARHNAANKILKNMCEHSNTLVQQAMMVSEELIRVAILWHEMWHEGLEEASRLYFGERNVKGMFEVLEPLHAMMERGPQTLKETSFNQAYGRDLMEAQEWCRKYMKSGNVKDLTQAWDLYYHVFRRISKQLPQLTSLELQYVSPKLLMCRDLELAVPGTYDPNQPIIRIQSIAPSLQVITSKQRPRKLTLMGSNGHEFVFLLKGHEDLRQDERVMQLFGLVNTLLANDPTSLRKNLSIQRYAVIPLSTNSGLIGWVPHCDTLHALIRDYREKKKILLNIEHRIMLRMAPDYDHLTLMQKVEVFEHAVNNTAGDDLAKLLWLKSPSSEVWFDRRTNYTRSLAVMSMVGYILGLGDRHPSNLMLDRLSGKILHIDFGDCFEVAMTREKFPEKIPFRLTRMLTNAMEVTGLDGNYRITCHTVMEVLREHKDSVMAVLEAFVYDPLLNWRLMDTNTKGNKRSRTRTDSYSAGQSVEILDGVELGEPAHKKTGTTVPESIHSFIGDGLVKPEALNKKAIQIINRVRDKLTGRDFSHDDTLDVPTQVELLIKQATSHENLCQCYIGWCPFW

SMILES: CC(C)Cn1c(N2CCN(C(=O)[C@H](C)O)[C@H](C)C2)nc2c(N3CCOCC3)nc(-c3cnc(N)nc3)nc21 [Example 103, (2S)-1-{(2R)-4-[2-(2-Aminopyrimidin-5-yl)-9-isobutyl-6-morpholin-4-yl-9H-purin-8-yl]-2-methylpiperazin-1-yl}-1-oxopropan-2-ol]
- IC50 [1]: 10 to 30 nM
- inhibition at 10 mg/kg [2]: > 90%

SMILES: CC(C)Cn1c(N2CCN(C(=O)[C@H](C)O)[C@@H](C)C2)nc2c(N3CCOCC3)nc(-c3cnc(N)nc3)nc21 [Example 104, (2S)-1-{(2S)-4-[2-(2-Aminopyrimidin-5-yl)-9-isobutyl-6-morpholin-4-yl-9H-purin-8-yl]-2-methylpiperazin-1-yl}-1-oxopropan-2-ol]
- IC50 [1]: 10 to 30 nM
- inhibition at 10 mg/kg [2]: > 90%

SMILES: CNc1ncc(-c2nc(N3CCOCC3)c3nc(N4CCN(S(C)(=O)=O)[C@@H](C)C4)n(CC(F)(F)F)c3n2)cn1 [Example 105, N-Methyl-5-{8-[(3S)-3-methyl-4-(methylsulfonyl)piperazin-1-yl]-6-morpholin-4-yl-9-(2,2,2-trifluoroethyl)-9H-purin-2-yl}pyrimidin-2-amine]
- IC50 [1]: < 10 nM
- inhibition at 10 mg/kg [2]: > 90%

SMILES: CNc1ncc(-c2nc(N3CCOCC3)c3nc(N4CCN(S(C)(=O)=O)[C@H](C)C4)n(CC(F)(F)F)c3n2)cn1 [Example 106, N-Methyl-5-{8-[(3R)-3-methyl-4-(methylsulfonyl)piperazin-1-yl]-6-morpholin-4-yl-9-(2,2,2-trifluoroethyl)-9H-purin-2-yl}pyrimidin-2-amine]
- IC50 [1]: < 10 nM
- inhibition at 10 mg/kg [2]: > 90%

SMILES: CNc1ncc(-c2nc(N3CCOCC3)c3nc(N4CCN(C(C)=O)[C@@H](C)C4)n(CC(F)(F)F)c3n2)cn1 [Example 107, 5-{8-[(3S)-4-Acetyl-3-methylpiperazin-1-yl]-6-morpholin-4-yl-9-(2,2,2-trifluoroethyl)-9H-purin-2-yl}-N-methylpyrimidin-2-amine]
- IC50 [1]: < 10 nM
- inhibition at 10 mg/kg [2]: > 90%

SMILES: CNc1ncc(-c2nc(N3CCOCC3)c3nc(N4CCN(C(C)=O)[C@H](C)C4)n(CC(F)(F)F)c3n2)cn1 [Example 108, 5-{8-[(3R)-4-Acetyl-3-methylpiperazin-1-yl]-6-morpholin-4-yl-9-(2,2,2-trifluoroethyl)-9H-purin-2-yl}-N-methylpyrimidin-2-amine]
- IC50 [1]: < 10 nM
- inhibition at 10 mg/kg [2]: > 90%

SMILES: C[C@H](O)C(=O)N1CCN(c2nc3c(N4CCOCC4)nc(-c4cnc(N)nc4)nc3n2CC(F)(F)F)C[C@@H]1C [Example 109, (2S)-1-{(2S)-4-[2-(2-Aminopyrimidin-5-yl)-6-morpholin-4-yl-9-(2,2,2-trifluoroethyl)-9H-purin-8-yl]-2-methylpiperazin-1-yl}-1-oxopropan-2-ol]
- IC50 [1]: < 10 nM
- inhibition at 10 mg/kg [2]: > 90%

SMILES: C[C@H](O)C(=O)N1CCN(c2nc3c(N4CCOCC4)nc(-c4cnc(N)nc4)nc3n2CC(F)(F)F)C[C@H]1C [Example 110, (2S)-1-{(2R)-4-[2-(2-Aminopyrimidin-5-yl)-6-morpholin-4-yl-9-(2,2,2-trifluoroethyl)-9H-purin-8-yl]-2-methylpiperazin-1-yl}-1-oxopropan-2-ol]
- IC50 [1]: < 10 nM
- inhibition at 10 mg/kg [2]: > 90%

SMILES: C[C@H]1CN(c2nc3c(N4CCOCC4)nc(-c4cnc(N)nc4)nc3n2CC(F)(F)F)CCN1C=O [Example 111, (2S)-4-[2-(2-Aminopyrimidin-5-yl)-6-morpholin-4-yl-9-(2,2,2-trifluoroethyl)-9H-purin-8-yl]-2-methylpiperazine-1-carboaldehyde]
- IC50 [1]: < 10 nM
- inhibition at 10 mg/kg [2]: > 90%

SMILES: C[C@@H]1CN(c2nc3c(N4CCOCC4)nc(-c4cnc(N)nc4)nc3n2CC(F)(F)F)CCN1C=O [Example 112, (2R)-4-[2-(2-Aminopyrimidin-5-yl)-6-morpholin-4-yl-9-(2,2,2-trifluoroethyl)-9H-purin-8-yl]-2-methylpiperazine-1-carboaldehyde]
- IC50 [1]: < 10 nM
- inhibition at 10 mg/kg [2]: > 90%

SMILES: C[C@@H](O)C(=O)N1CCN(c2nc3c(N4CCOCC4)nc(-c4cnc(N)nc4)nc3n2CC2CC2)C[C@@H]1C [Example 113, (2R)-1-{(2S)-4-[2-(2-Aminopyrimidin-5-yl)-9-(cyclopropylmethyl)-6-morpholin-4-yl-9H-purin-8-yl]-2-methylpiperazin-1-yl}-1-oxopropan-2-ol]
- IC50 [1]: < 10 nM
- inhibition at 10 mg/kg [2]: > 90%

SMILES: C[C@@H]1CN(c2nc3c(N4CCOCC4)nc(-c4cnc(N)nc4)nc3n2CC2CC2)CCN1C(=O)[C@@H](C)O [Example 114, (2R)-1-{(2R)-4-[2-(2-Aminopyrimidin-5-yl)-9-(cyclopropylmethyl)-6-morpholin-4-yl-9H-purin-8-yl]-2-methylpiperazin-1-yl}-1-oxopropan-2-ol]
- IC50 [1]: 10 to 30 nM
- inhibition at 10 mg/kg [2]: > 90%

SMILES: CC(=O)N1[C@H](C)CN(c2nc3c(N4CCOCC4)nc(-c4cnc(N)nc4)nc3n2CC(F)(F)F)C[C@@H]1C [Example 115, 5-[8-(4-Acetyl-cis-3,5-dimethylpiperazin-1-yl)-6-morpholin-4-yl-9-(2,2,2-trifluoroethyl)-9H-purin-2-yl]pyrimidin-2-amine]
- IC50 [1]: < 10 nM
- inhibition at 10 mg/kg [2]: > 90%

SMILES: C[C@@H]1CN(c2nc3c(N4CCOCC4)nc(-c4cnc(N)nc4)nc3n2CC(F)(F)F)C[C@H](C)N1C=O [Example 116, 4-[2-(2-Aminopyrimidin-5-yl)-6-morpholin-4-yl-9-(2,2,2-trifluoroethyl)-9H-purin-8-yl]-cis-2,6-dimethylpiperazine-1-carboaldehyde]
- IC50 [1]: < 10 nM
- inhibition at 10 mg/kg [2]: > 90%

SMILES: CCC(=O)N1CCN(c2nc3c(N4CCOCC4)nc(-c4cnc(N)nc4)nc3n2CC(F)(F)F)CC1 [Example 117, 5-[6-Morpholin-4-yl-8-(4-propionylpiperazin-1-yl)-9-(2,2,2-trifluoroethyl)-9H-purin-2-yl]pyrimidin-2-amine]
- IC50 [1]: < 10 nM
- inhibition at 10 mg/kg [2]: 70 to 90%

SMILES: CC(=O)N1CCN(c2nc3c(N4CCOCC4)nc(-c4cnc(N)nc4)nc3n2CC(F)(F)F)CC12CC2 [Example 119, 5-[8-(4-Acetyl-4,7-diazaspiro[2.5]oct-7-yl)-6-morpholin-4-yl-9-(2,2,2-trifluoroethyl)-9H-purin-2-yl]pyrimidin-2-amine]
- IC50 [1]: 10 to 30 nM
- inhibition at 10 mg/kg [2]: > 90%

SMILES: CC(=O)N1CCN(c2nc3c(N4CCOC[C@@H]4C)nc(-c4cnc(N)nc4)nc3n2CC(C)C)CC1 [Example 129, 5-{8-(4-Acetylpiperazin-1-yl)-9-isobutyl-6-[(3S)-3-methylmorpholin-4-yl]-9H-purin-2-yl}pyrimidin-2-amine]
- IC50 [1]: 10 to 30 nM
- inhibition at 10 mg/kg [2]: 70 to 90%

SMILES: CC(C)Cn1c(N2CCN(C(=O)CO)CC2)nc2c(N3CCOC[C@@H]3C)nc(-c3cnc(N)nc3)nc21 [Example 130, 2-(4-{2-(2-Aminopyrimidin-5-yl)-9-isobutyl-6-[(3S)-3-methylmorpholin-4-yl]-9H-purin-8-yl}piperazin-1-yl)-2-oxoethanol]
- IC50 [1]: < 10 nM
- inhibition at 10 mg/kg [2]: > 90%

SMILES: CC(C)Cn1c(N2CCN(C(=O)[C@H](C)O)CC2)nc2c(N3CCOC[C@@H]3C)nc(-c3cnc(N)nc3)nc21 [Example 131, (2S)-1-(4-{2-(2-Aminopyrimidin-5-yl)-9-isobutyl-6-[(3S)-3-methylmorpholin-4-yl]-9H-purin-8-yl}piperazin-1-yl)-1-oxopropan-2-ol]
- IC50 [1]: 10 to 30 nM
- inhibition at 10 mg/kg [2]: > 90%

SMILES: CC(C)Cn1c(N2CCN(C=O)CC2)nc2c(N3CCOC[C@@H]3C)nc(-c3cnc(N)nc3)nc21 [Example 132, 4-{2-(2-Aminopyrimidin-5-yl)-9-isobutyl-6-[(3S)-3-methylmorpholin-4-yl]-9H-purin-8-yl}piperazine-1-carboaldehyde]
- IC50 [1]: 10 to 30 nM
- inhibition at 10 mg/kg [2]: > 90%

SMILES: CNc1ncc(-c2nc(N3CCOCC3)c3nc(N4CCN(C(C)=O)CC4)n(CC(F)(F)F)c3n2)cn1 [Example 134, 5-[8-(4-Acetylpiperazin-1-yl)-6-morpholin-4-yl-9-(2,2,2-trifluoroethyl)-9H-purin-2-yl]-N-methylpyrimidin-2-amine]
- IC50 [1]: < 10 nM
- inhibition at 10 mg/kg [2]: > 90%
